According to PubChem BioAssay AID2060492 (Molecular Pharmacology Branch, DTP, NCI, 2025):

Tested on: 695427-040-R-J1-PDC complex spheroids, viability percent T/C
Test: Anticancer human tumor 695427-040-R-J1-PDC patient-derived colon adenocarcinoma cell line growth inhibition [GQUAD]
Details: for IC50: curve of first compound; for viability, T/C: stronger effect = lower value
In short: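 Viability of tumor cells grown as complex spheroids with endothelial and stromal cells, exposed to drug combinations. Top concentration at or near clinical Cmax (else 10 microM), diluted in half-log increments.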

[1] = second compound 0.0316 µM, first compound 0.0316 µM
[2] = second compound 0.0316 µM, first compound 0.1 µM
[3] = second compound 0.0316 µM, first compound 0.316 µM
[4] = second compound 0.0316 µM, first compound 1 µM
[5] = second compound 0.0316 µM, first compound 3.16 µM
[6] = second compound 0.0316 µM, first compound 10 µM
[7] = second compound 0.1 µM, first compound 0.0316 µM
[8] = second compound 0.1 µM, first compound 0.1 µM
[9] = second compound 0.1 µM, first compound 0.316 µM
[10] = second compound 0.1 µM, first compound 1 µM
[11] = second compound 0.1 µM, first compound 3.16 µM
[12] = second compound 0.1 µM, first compound 10 µM
[13] = second compound 0.316 µM, first compound 0.0316 µM
[14] = second compound 0.316 µM, first compound 0.1 µM
[15] = second compound 0.316 µM, first compound 0.316 µM
[16] = second compound 0.316 µM, first compound 1 µM
[17] = second compound 0.316 µM, first compound 3.16 µM
[18] = second compound 0.316 µM, first compound 10 µM
[19] = second compound 1 µM, first compound 0.0316 µM
[20] = second compound 1 µM, first compound 0.1 µM
[21] = second compound 1 µM, first compound 0.316 µM
[22] = second compound 1 µM, first compound 1 µM
[23] = second compound 1 µM, first compound 3.16 µM
[24] = second compound 1 µM, first compound 10 µM
[25] = second compound 3.16 µM, first compound 0.0316 µM
[26] = second compound 3.16 µM, first compound 0.1 µM
[27] = second compound 3.16 µM, first compound 0.316 µM
[28] = second compound 3.16 µM, first compound 1 µM
[29] = second compound 3.16 µM, first compound 3.16 µM
[30] = second compound 3.16 µM, first compound 10 µM
[31] = second compound 10 µM, first compound 0.0316 µM
[32] = second compound 10 µM, first compound 0.1 µM
[33] = second compound 10 µM, first compound 0.316 µM
[34] = second compound 10 µM, first compound 1 µM
[35] = second compound 10 µM, first compound 3.16 µM
[36] = second compound 10 µM, first compound 10 µM
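Further: spheroids exposed to compounds for seven days before readout.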

Compound `COc1cccc2c1C(=O)c1c(O)c3c(c(O)c1C2=O)CC(O)(C(=O)CO)CC3OC1CC(N)C(O)C(C)O1` (stereo unspecified) + Cc1[nH]c2ccc(F)cc2c1-c1nc2c3cccnc3c3ncccc3c2[nH]1 has an IC50 (second compound 0.0316 µM) of over 10 µM, an IC50 (second compound 0.1 µM) of over 10 µM and an IC50 (second compound 0.316 µM) of over 10 µM. For the same compound, the IC50 (second compound 1 µM) was over 10 µM, the IC50 (second compound 3.16 µM) was 4.85 µM and the IC50 (second compound 10 µM) was 5.56 µM. It also gave a viability, T/C [1] of 98.6%, a viability, T/C [2] of 88.4% and a viability, T/C [3] of 96.9%. The viability, T/C [4] was 87.1%, the viability, T/C [5] was 60.6% and the viability, T/C [6] was 50.7%. For the same compound, the viability, T/C [7] was 104%, the viability, T/C [8] was 98.8% and the viability, T/C [9] was 91.3%. The viability, T/C [10] was 71.9%, the viability, T/C [11] was 74.4% and the viability, T/C [12] was 48.9%. The viability, T/C [13] was 95.2%, the viability, T/C [14] was 77.9% and the viability, T/C [15] was 87.1%. It also gave a viability, T/C [16] of 73.8%, a viability, T/C [17] of 71.5% and a viability, T/C [18] of 49.6%. It also gave a viability, T/C [19] of 83%, a viability, T/C [20] of 92.4% and a viability, T/C [21] of 78.8%. For the same compound, the viability, T/C [22] was 72.5%, the viability, T/C [23] was 71.2% and the viability, T/C [24] was 49.6%. It also gave a viability, T/C [25] of 59.6%, a viability, T/C [26] of 86.8% and a viability, T/C [27] of 70.4%. The viability, T/C [28] was 59.4%, the viability, T/C [29] was 56.8% and the viability, T/C [30] was 42.5%. For the same compound, the viability, T/C [31] was 65.9%, the viability, T/C [32] was 80.1% and the viability, T/C [33] was 65%. The viability, T/C [34] was 70.9%, the viability, T/C [35] was 62.2% and the viability, T/C [36] was 37%.

`Nc1ccn(C2OC(CO)C(O)C2(F)F)c(=O)n1` (stereo unspecified) + Cc1[nH]c2ccc(F)cc2c1-c1nc2c3cccnc3c3ncccc3c2[nH]1 gave an IC50 (second compound 0.0316 µM) of over 10 µM, an IC50 (second compound 0.1 µM) of over 10 µM and an IC50 (second compound 0.316 µM) of over 10 µM. For the same compound, the IC50 (second compound 1 µM) was over 10 µM, the IC50 (second compound 3.16 µM) was 1.65 µM and the IC50 (second compound 10 µM) was 1.44 µM. The viability, T/C [1] was 78.4%, the viability, T/C [2] was 74.8% and the viability, T/C [3] was 71.3%. The viability, T/C [4] was 54.6%, the viability, T/C [5] was 56.4% and the viability, T/C [6] was 46.7%. It also gave a viability, T/C [7] of 92.2%, a viability, T/C [8] of 75.1% and a viability, T/C [9] of 59%. It also gave a viability, T/C [10] of 54.1%, a viability, T/C [11] of 60.5% and a viability, T/C [12] of 52.1%. The viability, T/C [13] was 86%, the viability, T/C [14] was 70.8% and the viability, T/C [15] was 64.4%. It also gave a viability, T/C [16] of 55.1%, a viability, T/C [17] of 66.6% and a viability, T/C [18] of 46.5%. The viability, T/C [19] was 87.3%, the viability, T/C [20] was 64.6% and the viability, T/C [21] was 59.2%. It also gave a viability, T/C [22] of 57.9%, a viability, T/C [23] of 63.1% and a viability, T/C [24] of 48.8%. It also gave a viability, T/C [25] of 67.6%, a viability, T/C [26] of 55.4% and a viability, T/C [27] of 55.5%. For the same compound, the viability, T/C [28] was 53.3%, the viability, T/C [29] was 51.4% and the viability, T/C [30] was 39.8%. It also gave a viability, T/C [31] of 63.2%, a viability, T/C [32] of 59.4% and a viability, T/C [33] of 57.8%. The viability, T/C [34] was 51%, the viability, T/C [35] was 43% and the viability, T/C [36] was 47.4%.

Compound `O=c1[nH]cc(F)c(=O)[nH]1` + Cc1[nH]c2ccc(F)cc2c1-c1nc2c3cccnc3c3ncccc3c2[nH]1 has an IC50 (second compound 0.0316 µM) of over 10 µM, an IC50 (second compound 0.1 µM) of over 10 µM and an IC50 (second compound 0.316 µM) of over 10 µM. For the same compound, the IC50 (second compound 1 µM) was over 10 µM, the IC50 (second compound 3.16 µM) was over 10 µM and the IC50 (second compound 10 µM) was over 10 µM. It also gave a viability, T/C [1] of 102%, a viability, T/C [2] of 91.1% and a viability, T/C [3] of 99.1%. For the same compound, the viability, T/C [4] was 92.3%, the viability, T/C [5] was 89% and the viability, T/C [6] was 108%. For the same compound, the viability, T/C [7] was 98.4%, the viability, T/C [8] was 77.3% and the viability, T/C [9] was 92.2%. For the same compound, the viability, T/C [10] was 82.2%, the viability, T/C [11] was 94.8% and the viability, T/C [12] was 98.6%. For the same compound, the viability, T/C [13] was 104%, the viability, T/C [14] was 74.1% and the viability, T/C [15] was 89.1%. The viability, T/C [16] was 62.4%, the viability, T/C [17] was 98.8% and the viability, T/C [18] was 87%. For the same compound, the viability, T/C [19] was 84.5%, the viability, T/C [20] was 91.8% and the viability, T/C [21] was 76.2%. The viability, T/C [22] was 82.3%, the viability, T/C [23] was 88.2% and the viability, T/C [24] was 89.2%. For the same compound, the viability, T/C [25] was 82.1%, the viability, T/C [26] was 81.7% and the viability, T/C [27] was 83.7%. The viability, T/C [28] was 69.8%, the viability, T/C [29] was 74.1% and the viability, T/C [30] was 66.3%. The viability, T/C [31] was 59.8%, the viability, T/C [32] was 73% and the viability, T/C [33] was 75.8%. It also gave a viability, T/C [34] of 75.9%, a viability, T/C [35] of 74.1% and a viability, T/C [36] of 78.3%.
